In ChEMBL document CHEMBL1201862, “PubChem BioAssay data set” (2004):
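These data come from cells grown in 96-well plates and exposed to compound for 48 hours at five concentrations. GI50 = concentration required for 50% inhibition of growth.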 The source made the active and inactive calls. No stated cut-off is given here; in the data, active = GI50 up to about 1.1 µM and inactive = higher.

How the values were obtained:
Test in all cases: growth of human tumour cells (NCI), 48 h
SF-295 = system: SF-295
K562 = system: K562
A549 = system: A549
PC-3 = system: PC-3
TK-10 = system: TK-10
A498 = system: A498
SN12C = system: SN12C
HL-60 = system: HL-60
COLO 205 = system: COLO 205
OVCAR-5 = system: OVCAR-5
SR = system: SR
HCT-15 = system: HCT-15
NCI-H23 = system: NCI-H23
OVCAR-8 = system: OVCAR-8
NCI-H460 = system: NCI-H460
UACC-62 = system: UACC-62
SK-MEL-28 = system: SK-MEL-28
MDA-MB-435 = system: MDA-MB-435
OVCAR-3 = system: OVCAR-3
RXF 393 = system: RXF 393

SMILES	GI50 (SF-295)	GI50 (K562)	GI50 (A549)	GI50 (PC-3)	GI50 (TK-10)	GI50 (A498)	GI50 (SN12C)	GI50 (HL-60)	GI50 (COLO 205)	GI50 (OVCAR-5)	GI50 (SR)	GI50 (HCT-15)	GI50 (NCI-H23)	GI50 (OVCAR-8)	GI50 (NCI-H460)	GI50 (UACC-62)	GI50 (SK-MEL-28)	GI50 (MDA-MB-435)	GI50 (OVCAR-3)	GI50 (RXF 393)
CCOC(=O)C1=C(C)N(Cc2ccccc2)C2(O)C=CC(O)=C3C(=O)c4ccccc4C(=O)C312 (stereo not given)	10.3 µM (inactive)	15.1 µM (inactive)	15.3 µM (inactive)	19.2 µM (inactive)	18.5 µM (inactive)	23.6 µM (inactive)	13.5 µM (inactive)	15.1 µM (inactive)	16.8 µM (inactive)	15.8 µM (inactive)	4.37 µM (inactive)	3.82 µM	8.61 µM (inactive)	19.1 µM (inactive)	11.3 µM (inactive)	14.7 µM (inactive)	28.6 µM (inactive)	8.93 µM (inactive)	7.67 µM (inactive)	3.37 µM (inactive)
O=[N+]([O-])c1ccc2c(c1)Nc1c3ccccc3nc3cccc-2c13	0.482 µM (active)	2.1 µM (inactive)	2.16 µM (inactive)	2.35 µM (inactive)	5.38 µM (inactive)	34.5 µM (inactive)	11.3 µM (inactive)	1.32 µM (inactive)	2.68 µM (inactive)	6.93 µM (inactive)	0.733 µM (active)	3.56 µM	4.85 µM (inactive)	1.17 µM (inactive)	0.789 µM (active)	4.16 µM (inactive)	6.52 µM (inactive)	4.23 µM (inactive)	0.689 µM (active)	8.39 µM (inactive)
CC(C)C[C@H](NC(=O)[C@@H](Cc1cccc2ccccc12)NC(=O)N1CCOCC1)B(O)O	14 µM (inactive)	3.55 µM (inactive)	19.8 µM (inactive)	7.82 µM (inactive)	6.47 µM (inactive)	4.05 µM (inactive)	5.55 µM (inactive)	2.77 µM (inactive)	16.4 µM (inactive)	3.19 µM (inactive)	3.13 µM (inactive)	21.9 µM	2.9 µM (inactive)	16.7 µM (inactive)	18.5 µM (inactive)	4.02 µM (inactive)	2.14 µM (inactive)	1.92 µM (inactive)	2.61 µM (inactive)	2.4 µM (inactive)
c1ccc(CN2CCc3[nH]c4ccccc4c3C2)cc1	29.9 µM (inactive)	19.1 µM (inactive)	67.8 µM (inactive)	25.4 µM (inactive)	23.9 µM (inactive)	26.6 µM (inactive)	34.3 µM (inactive)	17.6 µM (inactive)	16.9 µM (inactive)	39.9 µM (inactive)	21.9 µM (inactive)	25.9 µM	59.2 µM (inactive)	46.1 µM (inactive)	16.7 µM (inactive)	26.1 µM (inactive)	17.5 µM (inactive)	22.9 µM (inactive)	33 µM (inactive)	34.7 µM (inactive)
O=S1(=O)NC2CCC3NS(=O)(=O)NC4CCC(N1)N4S(=O)(=O)N23 (stereo not given)	> 100 µM (inactive)	> 100 µM (inactive)	> 100 µM (inactive)	> 100 µM (inactive)	> 100 µM (inactive)	> 100 µM (inactive)	> 100 µM (inactive)	> 100 µM (inactive)	> 100 µM (inactive)	> 100 µM (inactive)	> 100 µM (inactive)	> 100 µM	> 100 µM (inactive)	> 100 µM (inactive)	> 100 µM (inactive)	> 100 µM (inactive)	> 100 µM (inactive)	> 100 µM (inactive)	> 100 µM (inactive)	> 100 µM (inactive)
CCC(=O)O[C@H]1CC[C@H]2[C@@H]3CCC4=CC(=O)C=C[C@]4(O)[C@H]3CC[C@]12C	26.1 µM (inactive)	3.39 µM (inactive)	16.1 µM (inactive)	23.8 µM (inactive)	57.4 µM (inactive)	> 100 µM (inactive)	41.9 µM (inactive)	11.9 µM (inactive)	37.8 µM (inactive)	87.5 µM (inactive)	2.67 µM (inactive)	15 µM	22 µM (inactive)	23 µM (inactive)	16.3 µM (inactive)	15.4 µM (inactive)	67.6 µM (inactive)	3.11 µM (inactive)	19.8 µM (inactive)	24.5 µM (inactive)
COc1ccc(C2Oc3ccc(Cl)cc3C=C2[N+](=O)[O-])cc1OC (stereo not given)	1.48 µM (inactive)	0.164 µM (active)	1.83 µM (inactive)	1.32 µM (inactive)	1.51 µM (inactive)	3.37 µM (inactive)	0.871 µM (active)	0.204 µM (active)	1.16 µM (inactive)	1.5 µM (inactive)	0.0661 µM (active)	1.47 µM	1.61 µM (inactive)	1.12 µM (active)	2.38 µM (inactive)	1.5 µM (inactive)	1.27 µM (inactive)	0.15 µM (active)	0.719 µM (active)	1.59 µM (inactive)
COc1cc(C#CC(=O)OC/C=C/c2ccc3c(c2)OCO3)cc(OC)c1OC	36.1 µM (inactive)	28.9 µM (inactive)	33.7 µM (inactive)	21.8 µM (inactive)	21.4 µM (inactive)	5.53 µM (inactive)	31.2 µM (inactive)	36.5 µM (inactive)	19.1 µM (inactive)	35.6 µM (inactive)	16.7 µM (inactive)	24.9 µM	25.2 µM (inactive)	29.1 µM (inactive)	24.9 µM (inactive)	18.8 µM (inactive)	> 100 µM (inactive)	18.5 µM (inactive)	26.5 µM (inactive)	12.3 µM (inactive)
CC(C)CC(NC(=O)C(CSc1ccc([N+](=O)[O-])cc1)Cc1ccccc1)C(=O)Nc1ccccc1 (stereo not given)	39.1 µM (inactive)	85.5 µM (inactive)	93.5 µM (inactive)	> 100 µM (inactive)	58.2 µM (inactive)	> 100 µM (inactive)	> 100 µM (inactive)	40.9 µM (inactive)	> 100 µM (inactive)	> 100 µM (inactive)	> 100 µM (inactive)	> 100 µM	> 100 µM (inactive)	48.8 µM (inactive)	49.8 µM (inactive)	> 100 µM (inactive)	98.2 µM (inactive)	> 100 µM (inactive)	> 100 µM (inactive)	> 100 µM (inactive)
COc1cc2cc[n+](C)c(Cc3ccc(Oc4cc(Cc5c6cc(OC)c(OC)cc6cc[n+]5C)ccc4OC)cc3)c2cc1OC	59.2 µM (inactive)	> 100 µM (inactive)	> 100 µM (inactive)	91.4 µM (inactive)	40.3 µM (inactive)	> 100 µM (inactive)	> 100 µM (inactive)	45.2 µM (inactive)	> 100 µM (inactive)	> 100 µM (inactive)	> 100 µM (inactive)	> 100 µM	> 100 µM (inactive)	> 100 µM (inactive)	> 100 µM (inactive)	> 100 µM (inactive)	> 100 µM (inactive)	> 100 µM (inactive)	> 100 µM (inactive)	> 100 µM (inactive)
CN(C)c1ccc(/C=C/C=C(/C#N)c2ccccc2)cc1	26.8 µM (inactive)	4.22 µM (inactive)	32.1 µM (inactive)	39.3 µM (inactive)	42.8 µM (inactive)	24.3 µM (inactive)	45.4 µM (inactive)	2.74 µM (inactive)	20.4 µM (inactive)	> 62.7 µM (inactive)	3.64 µM (inactive)	6.87 µM	36.9 µM (inactive)	33 µM (inactive)	25.5 µM (inactive)	19.2 µM (inactive)	> 82.4 µM (inactive)	2 µM (inactive)	9.91 µM (inactive)	36.8 µM (inactive)
O=C(O)C1CC(c2ccc(F)cc2)=Nc2ccc(F)cc2S1 (stereo not given)	> 100 µM (inactive)	> 100 µM (inactive)	> 100 µM (inactive)	> 100 µM (inactive)	> 100 µM (inactive)	> 100 µM (inactive)	> 100 µM (inactive)	> 100 µM (inactive)	> 100 µM (inactive)	> 100 µM (inactive)	> 10 µM (inactive)	> 100 µM	> 100 µM (inactive)	> 100 µM (inactive)	> 100 µM (inactive)	> 100 µM (inactive)	> 100 µM (inactive)	> 100 µM (inactive)	> 100 µM (inactive)	> 100 µM (inactive)
O=C(Nc1ccc2nc(-c3ccccc3)cn2c1)Oc1ccccc1	57.9 µM (inactive)	34.6 µM (inactive)	55.5 µM (inactive)	> 100 µM (inactive)	53.7 µM (inactive)	71.3 µM (inactive)	66.8 µM (inactive)	30.9 µM (inactive)	48.6 µM (inactive)	78.2 µM (inactive)	19 µM (inactive)	45.1 µM	99.1 µM (inactive)	59.7 µM (inactive)	33.1 µM (inactive)	37.9 µM (inactive)	> 100 µM (inactive)	13.9 µM (inactive)	38.6 µM (inactive)	0.893 µM (active)
CC(Br)CN(CC(C)Br)c1ccc2c(c1)Cc1ccccc1-2 (stereo not given)	10.7 µM (inactive)	5.92 µM (inactive)	12.1 µM (inactive)	10.8 µM (inactive)	12.3 µM (inactive)	13 µM (inactive)	11.4 µM (inactive)	1.73 µM (inactive)	14.5 µM (inactive)	18.9 µM (inactive)	1.76 µM (inactive)	13.1 µM	12 µM (inactive)	9.98 µM (inactive)	2.22 µM (inactive)	11.9 µM (inactive)	18.9 µM (inactive)	13.7 µM (inactive)	11.7 µM (inactive)	14.3 µM (inactive)
